# Measured values taken from patent US20100022527A1, “BIPHENYL SUBSTITUTED SPIROTETRONIC ACIDS AND THEIR USE FOR THE TREATMENT OF RETROVIRAL DISEASES” (priority 2006, published 2010).
# pIC50: −log10 of the molar value.
# Target: T1, HIV-1 protease wild type protein (Human immunodeficiency virus type 1 group M subtype B, UniProt P04585)
# T1 construct: HIV-1 protease wild type protein; purchased AscoProt Biotech, Prague, Czech Republic
# Experiment: Biochemical protease assay
# Protocol: For the determination of their in vitro activity on HIV proteases the test substances are dissolved in DMSO and serially diluted. In each case 0.5 μl of substance dilution, 20 μl of 0.2-1 nM HIV-1 protease wild type or mutant protein (e.g., multiresistant isolate “35513”: L10I, I15V, L19I, K20R, E35D, M36I, R41K, I54V, L63P, H69K, A71V, T74P, I84V, L89M, L90M, 193L, AscoProt Biotech, Prague, Czech Republic) in buffer 1 (50 mM sodium acetate pH 4.9, 0.02% BSA, 0.1 mM EDTA, 0.5 mM DTT) and 20 μl of 8 μM substrate (M1865 from Bachem, Bubendorf, Switzerland; Matayoshi et al., Science 1990, 247, 954-8) in buffer 1 are added successively to a 384 well microtiter plate (Greiner, Frickenhausen, Germany), incubated for 60-180 minutes at 32° C. and the fluorescence is measured (e.g., Tecan Safire, 340 nm extinction, 520 nm emission). IC50 values are determined by graphical plotting the substance concentration against the percentage inhibition.
row,SMILES,pIC50
1,Cc1cc(-c2ccc(C(=O)O)cc2)c(Cl)cc1C1=C(O)C2(CCCCC2)OC1=O [Example 30],≥ 7.00
2,Cc1cc(-c2cccc(C(=O)NCCC#N)c2)c(Cl)cc1C1=C(O)C2(CCCCC2)OC1=O [Example 51],≥ 7.00
3,Cc1cc(-c2cccc(S(C)(=O)=O)c2)c(Cl)cc1C1=C(O)C2(CCN(C(=O)CCCC(C)C)CC2)OC1=O [Example 139],≥ 7.00
4,Cc1cc(-c2cccc(S(C)(=O)=O)c2)c(Cl)cc1C1=C(O)C2(CCCN(CC(=O)C(C)(CF)CF)C2)OC1=O (stereo not shown) [Example 129],≥ 7.00
5,"CCOC1CCCCC12OC(=O)C(c1cc(Cl)c(-c3ccccc3)cc1C)=C2O (single isomer, unassigned) [Example 77]",≥ 7.00
6,Cc1cc(-c2ccc(OC(F)(F)F)cc2)c(Cl)cc1C1=C(O)C2(CCCCC2)OC1=O [Example 35],≥ 7.00
7,Cc1cc(-c2cccc(NS(C)(=O)=O)c2)c(Cl)cc1C1=C(O)C2(CCC3CCCC3C2)OC1=O (stereo not shown) [Example 189],≥ 7.00
8,COCCNC(=O)CN1CCCC2(C1)OC(=O)C(c1cc(Cl)c(-c3cccc(S(C)(=O)=O)c3)cc1C)=C2O (stereo not shown) [Example 116],≥ 7.00
9,Cc1cc(-c2cccc(S(C)(=O)=O)c2)c(Cl)cc1C1=C(O)C2(CCCN(C(C)C3=NOCCO3)C2)OC1=O (stereo not shown) [Example 102],≥ 7.00
10,COC1CCC2(CC1)OC(=O)C(c1cc(Cl)c(-c3ccccc3)cc1C)=C2O (stereo not shown) [Example 53],≥ 7.00
11,CCOC1CCCCC12OC(=O)C(c1cc(C)c(-c3ccc(Cl)cc3)cc1C)=C2O (stereo not shown) [Example 14],≥ 7.00
12,Cc1cc(-c2cccc(S(C)(=O)=O)c2)c(Cl)cc1C1=C(O)C2(CCCN(CC(=O)Nc3ccccc3)C2)OC1=O (stereo not shown) [Example 126],≥ 7.00
13,CCN(CC)C(=O)N1CCC2(CC1)OC(=O)C(c1cc(Cl)c(-c3cccc(S(C)(=O)=O)c3)cc1C)=C2O [Example 157],≥ 7.00
14,"C=CS(=O)(=O)Nc1cccc(-c2cc(C)c(C3=C(O)C4(CCCCC4)OC3=O)cc2Cl)c1 [Example 193, N-[2′-Chloro-4′-(4-hydroxy-2-oxo-1-oxaspiro[4.5]dec-3-en-3-yl)-5′-methylbiphenyl-3-yl]ethenesulfonamide]",≥ 7.00
15,Cc1cc(-c2cccc([N+](=O)[O-])c2)c(Cl)cc1C1=C(O)C2(CCC3CCCC3C2)OC1=O (stereo not shown) [Example 88],≥ 7.00
16,COC1CCC2(CC1)OC(=O)C(c1cc(C)c(-c3cccc(C(F)(F)F)c3)cc1C)=C2O (stereo not shown) [Example 57],≥ 7.00
17,"CCOC1CCCCC12OC(=O)C(c1cc(Cl)c(-c3cccc(S(C)(=O)=O)c3)cc1C)=C2O (single isomer, unassigned) [Example 75]",≥ 7.00
18,Cc1cc(-c2cccc(S(C)(=O)=O)c2)c(Cl)cc1C1=C(O)C2(CCN(C(=O)Cc3ccc(OC(F)(F)F)cc3)CC2)OC1=O [Example 144],≥ 7.00
19,Cc1cc(-c2cccc(C#N)c2)c(Cl)cc1C1=C(O)C2(CCCCC2)OC1=O [Example 37],≥ 7.00
20,"Cc1cc(-c2cccc(N(C)S(C)(=O)=O)c2)c(Cl)cc1C1=C(O)C2(CCCCC2)OC1=O [Example 185, N-[2′-Chloro-4′-(4-hydroxy-2-oxo-1-oxaspiro[4.5]dec-3-en-3-yl)-5′-methylbiphenyl-3-yl]-N-methylmethanesulfonamide]",≥ 7.00

row,SMILES,pIC50
1,COc1ccc(-c2ccc(C3=C(O)C4(CCCCC4)OC3=O)c(C)c2)cc1 [Example 62],≥ 7.00
2,Cc1cc(-c2cccc(S(C)(=O)=O)c2)c(Cl)cc1C1=C(O)C2(CCCC2)OC1=O [Example 200],≥ 7.00
3,COc1ccc(-c2cc(C)c(C3=C(O)C4(CCCCC4)OC3=O)cc2Cl)cc1 [Example 23],≥ 7.00
4,Cc1cc(-c2ccc(Cl)cc2)c(C)cc1C1=C(O)C2(CCCCC2OC(C)C)OC1=O (stereo not shown) [Example 13],≥ 7.00
5,Cc1cc(-c2ccc([N+](=O)[O-])cc2)c(Cl)cc1C1=C(O)C2(CCC3CCCC3C2)OC1=O (stereo not shown) [Example 89],≥ 7.00
6,Cc1cc(C2=C(O)C3(CCCCC3)OC2=O)c(Cl)cc1-c1cccc(S(C)(=O)=O)c1 [Example 71],≥ 7.00
7,Cc1cc(-c2cccc(S(C)(=O)=O)c2)c(Cl)cc1C1=C(O)C2(CCCN(CC(=O)NCc3cccnc3)C2)OC1=O (stereo not shown) [Example 162],≥ 7.00
8,Cc1cc(-c2cccc(NS(C)(=O)=O)c2)c(Cl)cc1C1=C(O)C2(CCCC2)OC1=O [Example 202],≥ 7.00
9,Cc1cc(-c2cccc(S(C)(=O)=O)c2)c(Cl)cc1C1=C(O)C2(CCCN(C(=O)CCCS(N)(=O)=O)C2)OC1=O (stereo not shown) [Example 113],≥ 7.00
10,Cc1cc(-c2cccc(S(C)(=O)=O)c2)c(Cl)cc1C1=C(O)C2(CCC3CCCC3C2)OC1=O (stereo not shown) [Example 84],≥ 7.00
11,CC(=O)c1cccc(-c2cc(C)c(C3=C(O)C4(CCCCC4)OC3=O)cc2Cl)c1 [Example 27],≥ 7.00
12,Cc1cc(-c2cccc(S(C)(=O)=O)c2)c(Cl)cc1C1=C(O)C2(CCN(C(=O)N(C(C)C)C(C)C)CC2)OC1=O [Example 156],≥ 7.00
13,COC1CCCCC12OC(=O)C(c1cc(C)c(-c3ccc(Cl)cc3)cc1C)=C2O (stereo not shown) [Example 15],≥ 7.00
14,Cc1cc(-c2cccc(S(C)(=O)=O)c2)c(Cl)cc1C1=C(O)C2(CCCN(CC(=O)NC(C)c3ccccc3)C2)OC1=O (stereo not shown) [Example 134],≥ 7.00
15,Cc1cc(C2=C(O)C3(CCCCC3)OC2=O)c(Cl)cc1-c1ccc(Cl)cc1 [Example 70],≥ 7.00
16,CCOc1ccccc1-c1cc(C)c(C2=C(O)C3(CCC(OC)CC3)OC2=O)cc1Cl (stereo not shown) [Example 55],≥ 7.00
17,"Cc1cc(-c2cccc(S(C)(=O)=O)c2)c(Cl)cc1C1=C(O)C2(CCCN(CC(=O)NCc3ccncc3)C2)OC1=O (stereo not shown) [Example 161, 2-{3-[2-Chloro-5-methyl-3′-(methylsulfonyl)biphenyl-4-yl]-4-hydroxy-2-oxo-1-oxa-7-azaspiro[4.5]dec-3-en-7-yl}-N-(pyridin-4-ylmethyl)acetamide]",≥ 7.00
18,Cc1cc(-c2cccc(S(C)(=O)=O)c2)c(Cl)cc1C1=C(O)C2(CCCN(CC(=O)NCc3cccs3)C2)OC1=O (stereo not shown) [Example 170],≥ 7.00
19,CC(=O)N1CCCC2(C1)OC(=O)C(c1cc(Cl)c(-c3cccc(S(C)(=O)=O)c3)cc1C)=C2O (stereo not shown) [Example 104],≥ 7.00
20,Cc1cc(-c2cccc(S(C)(=O)=O)c2)c(Cl)cc1C1=C(O)C2(CCCN(C(=O)CCOc3ccccc3)C2)OC1=O (stereo not shown) [Example 100],≥ 7.00

row,SMILES,pIC50
1,Cc1cc(-c2cccc(S(C)(=O)=O)c2)c(Cl)cc1C1=C(O)C2(CCN(C(=O)OCC(C)(C)C)CC2)OC1=O [Example 152],≥ 7.00
2,Cc1cc(-c2cccc(S(C)(=O)=O)c2)c(Cl)cc1C1=C(O)C2(CCCN(S(=O)(=O)CCCC(F)(F)F)C2)OC1=O (stereo not shown) [Example 114],≥ 7.00
3,Cc1cc(-c2cccc(NS(=O)(=O)c3cccnc3)c2)c(Cl)cc1C1=C(O)C2(CCCCC2)OC1=O [Example 192],≥ 7.00
4,COC1CCC2(CC1)OC(=O)C(c1cc(C)c(-c3ccc(Cl)cc3)cc1C)=C2O (stereo not shown) [Example 58],≥ 7.00
5,Cc1cc(-c2cccc(S(C)(=O)=O)c2)c(Cl)cc1C1=C(O)C2(CCCN(C(=O)/C=C/c3cccnc3)C2)OC1=O (stereo not shown) [Example 111],≥ 7.00
6,Cc1cc(-c2cccc(S(C)(=O)=O)c2)c(Cl)cc1C1=C(O)C2(CCCCCC2)OC1=O [Example 198],≥ 7.00
7,"COC(=O)CCCC(=O)N1CCC2(CC1)OC(=O)C(c1cc(Cl)c(-c3cccc(S(C)(=O)=O)c3)cc1C)=C2O [Example 138, methyl 5-{3-[2-chloro-5-methyl-3′-(methylsulfonyl)biphenyl-4-yl]-4-hydroxy-2-oxo-1-oxa-8-azaspiro[4.5]dec-3-en-8-yl}-5-oxopentanoate]",≥ 7.00
8,Cc1cc(-c2cccc(S(C)(=O)=O)c2)c(Cl)cc1C1=C(O)C2(CCCN(C(=O)CC3CCCC3)C2)OC1=O (stereo not shown) [Example 136],≥ 7.00
9,CC/C=C\C(=O)N1CCCC2(C1)OC(=O)C(c1cc(Cl)c(-c3cccc(S(C)(=O)=O)c3)cc1C)=C2O (stereo not shown) [Example 120],≥ 7.00
10,Cc1cc(-c2cccc(S(C)(=O)=O)c2)c(Cl)cc1C1=C(O)C2(CCCN(S(=O)(=O)Cc3ccccc3)C2)OC1=O (stereo not shown) [Example 110],≥ 7.00
11,Cc1ccc(-c2cc(C)c(C3=C(O)C4(CCCCC4)OC3=O)cc2Cl)cc1 [Example 22],≥ 7.00
12,Cc1cc(-c2cccc(S(C)(=O)=O)c2)c(Cl)cc1C1=C(O)C2(CCCCC2)OC1=O [Example 36],≥ 7.00
13,"Cc1cc(-c2ccccc2)c(Cl)cc1C1=C(O)C2(CCCCC2)OC1=O [Example 17, 3-(2-Chloro-5-methylbiphenyl-4-yl)-4-hydroxy-1-oxaspiro[4.5]dec-3-en-2-one]",≥ 7.00
14,Cc1cc(-c2cccc(S(C)(=O)=O)c2)c(Cl)cc1C1=C(O)C2(CCCN(CC(=O)NCc3ccsc3)C2)OC1=O (stereo not shown) [Example 167],≥ 7.00
15,"Cc1cc(-c2ccc(N)cc2)c(Cl)cc1C1=C(O)C2(CCCCC2)OC1=O [Example 171, 3-(4′-Amino-2-chloro-5-methylbiphenyl-4-yl)-4-hydroxy-1-oxaspiro[4.5]dec-3-en-2-one]",≥ 7.00
16,Cc1cc(-c2cccc([N+](=O)[O-])c2)c(Cl)cc1C1=C(O)C2(CCCCC2)OC1=O [Example 40],≥ 7.00
17,Cc1cc(-c2cccc(S(C)(=O)=O)c2)c(Cl)cc1C1=C(O)C2(CCCN(CC(=O)NCc3ccoc3)C2)OC1=O (stereo not shown) [Example 168],≥ 7.00
18,Cc1cc(-c2ccc(F)c([N+](=O)[O-])c2)c(Cl)cc1C1=C(O)C2(CCCCC2)OC1=O [Example 48],≥ 7.00
